Legend:
[1] = Plasma clearance of epirubicin following intravenous epirubicin at 25-35 mg.m-2 dose in cancer patients; assay type: ADME, organism-based; conditions: human, in vivo
[2] = Initial phase half-life of epirubicin following intravenous epirubicin at 75-90 mg.m-2 dose in cancer patients; assay type: ADME, organism-based, Plasma; conditions: human, in vivo
[3] = Intermediate phase half-life of epirubicin following intravenous epirubicin at 20 mg.m-2 dose in cancer patients; assay type: ADME, organism-based, Plasma; conditions: human, in vivo
[4] = AUC of epirubicin following intrahepatic epirubicin emulsion at 1 mg.Kg-1 dose in rabbit; assay type: ADME, organism-based, Oryctolagus cuniculus; conditions: both, New Zealand White, blood
[5] = Half-life of terminal elimination phase of epirubicin following intravenous epirubicin at 40-60 mg.m-2 dose in cancer patients; assay type: ADME, organism-based; conditions: human, plasma
[6] = Cumulative urinary excretion of epirubicin and its metabolites following epirubicin at 50 mg.m-2 dose in cancer patients; assay type: ADME, organism-based, Urine; conditions: human, in vivo; at 50 mg/m2
[7] = Terminal half-life of epirubicinol following intravenous epirubicin at 3 mg.Kg-1 dose in rabbit; assay type: ADME, organism-based, Oryctolagus cuniculus, New Zealand White, Plasma; conditions: in vivo
[8] = Plasma clearance of epirubicin following intravenous epirubicin at 70 mg.m-2 dose in cancer patients; assay type: ADME, organism-based; conditions: human, in vivo
[9] = Mean residence time (MRT) of epirubicin following intrahepatic epirubicin solution at 1 mg.Kg-1 dose in rabbit; assay type: ADME, organism-based, Oryctolagus cuniculus; conditions: both, New Zealand White, blood, read-out: Mean residence time (converted)
[10] = Initial phase half-life of epirubicin following intravenous epirubicin at 50 mg.m-2 dose in cancer patients; assay type: ADME, organism-based, Plasma; conditions: human, in vivo
[11] = Half-life of terminal elimination phase of epirubicin following intravenous epirubicin at 75-90 mg.m-2 dose in cancer patients; assay type: ADME, organism-based; conditions: human, plasma
[12] = Mean residence time (MRT) of epirubicin following intravenous epirubicin solution at 1 mg.Kg-1 dose in rabbit; assay type: ADME, organism-based, Oryctolagus cuniculus; conditions: both, New Zealand White, blood, read-out: Mean residence time (converted)
[13] = Initial phase half-life of epirubicin following intravenous epirubicin at 20 mg.m-2 dose in cancer patients; assay type: ADME, organism-based, Plasma; conditions: human, in vivo
[14] = Half-life of terminal elimination phase of epirubicin following intravenous epirubicin at 60 mg.m-2 dose in cancer patients; assay type: ADME, organism-based; conditions: human, plasma
[15] = Terminal half-life of epirubicin following intrahepatic epirubicin solution at 1 mg.Kg-1 dose in rabbit; assay type: ADME, organism-based, Oryctolagus cuniculus; conditions: both, New Zealand White, blood
[16] = Volume of distribution as steady state of epirubicin following intravenous epirubicin at 70 mg.m-2 dose in cancer patients; assay type: ADME, organism-based, Plasma; conditions: human, in vivo
[17] = Urinary excretion of epirubicin following epirubicin at 60 mg.m-2 dose in cancer patients; assay type: ADME, organism-based; conditions: human, urine, at 60 mg/m2, read-out: Compound recovery
[18] = Half-life of terminal elimination phase of epirubicin following intravenous epirubicin at 90-150 mg.m-2 dose in cancer patients; assay type: ADME, organism-based; conditions: human, plasma
[19] = Terminal half-life of epirubicin following intrahepatic epirubicin emulsion at 1 mg.Kg-1 dose in rabbit; assay type: ADME, organism-based, Oryctolagus cuniculus; conditions: both, New Zealand White, blood
[20] = Terminal half-life of epirubicin following intravenous epirubicin emulsion at 1 mg.Kg-1 dose in rabbit; assay type: ADME, organism-based, Oryctolagus cuniculus; conditions: both, New Zealand White, blood
[21] = Terminal elimination of metabolite of epirubicin following intravenous epirubicin at 25-35 mg.m-2 dose in cancer patients; assay type: ADME, organism-based, Plasma; conditions: human, in vivo
[22] = Half-life of epirubicin in heart following single intravenous epirubicin at 10 mg.Kg-1 dose in female mouse bearing colon tumor; assay type: ADME, organism-based; conditions: BALB/c
[23] = Volume of distribution of epirubicin following intravenous epirubicin emulsion at 1 mg.Kg-1 dose in rabbit; assay type: ADME, organism-based, Oryctolagus cuniculus; conditions: both, New Zealand White, blood
[24] = Plasma clearance of epirubicin following intravenous epirubicin at 50 mg.m-2 dose in cancer patients; assay type: ADME, organism-based; conditions: human, in vivo
[25] = Terminal elimination of metabolite of epirubicin following intravenous epirubicin at 50 mg.m-2 dose in cancer patients; assay type: ADME, organism-based, Plasma; conditions: human, in vivo
[26] = Mean AUC of epirubicin following intravenous epirubicin at 60 mg.m-2 dose in cancer patients; assay type: ADME, organism-based; conditions: human, plasma

COc1cccc2c1C(=O)c1c(O)c3c(c(O)c1C2=O)C[C@@](O)(C(=O)CO)C[C@@H]3O[C@H]1C[C@H](N)[C@@H](O)[C@H](C)O1.Cl [EPIRUBICIN HYDROCHLORIDE]
CLp [1]: 41.5 L.h-1.m-2 | t1/2 [2]: 4.8 min | t1/2 [3]: 0.89 h | AUC [4]: 36.4 ng·h/mL | half-life [5]: 15.3 h | Radiolabel recovery [6]: 10.5% | t1/2 [7]: 33.94 h | CLp [8]: 84.2 L.h-1.m-2 | MRT [9]: 1.38 h | t1/2 [10]: 3.44 min | half-life [11]: 38 h | MRT [12]: 1.26 h | t1/2 [13]: 3.4 min | half-life [14]: 31.4 h | half-life [15]: 1.14 h | Vss [16]: 2332 L.m-2 | dose excreted at 168 h [17]: 6.4% | half-life [18]: 42 h | half-life [19]: 0.868 h | half-life [20]: 0.628 h | t1/2 [21]: 21.1 h | half-life [22]: 10.6 h | Vd [23]: 18.8 L/kg | CLp [24]: 37 L.h-1.m-2 | t1/2 [25]: 21.1 h | AUC [26]: 1500 ng·h/mL
